# Target: human recombinant H-PGDS (Homo sapiens, UniProt O60760)
# Experiment: Fluorescence Intensity h-PGDS TBA Enzyme Assay
# Format: biochemical
# Settings: 1:175,000 human recombinant H-PGDS, highest inhibitor concentration typically 1 μM
# Outline: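 Recombinant human H-PGDS preincubated 10 min at room temperature with inhibitor in 100 mM Tris pH 8.0, 100 μM MgCl2, 2.5 mM glutathione, 0.5% DMSO; 5.0 μM PGH2 added, stopped after 42 s with FeCl2/citric acid. Remaining PGH2 measured as MDA–TBA fluorescence (ex 530/em 565 nm); IC50 by 4-parameter fit, 11 concentrations.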
# Chain of human recombinant H-PGDS (O60760 whole entry): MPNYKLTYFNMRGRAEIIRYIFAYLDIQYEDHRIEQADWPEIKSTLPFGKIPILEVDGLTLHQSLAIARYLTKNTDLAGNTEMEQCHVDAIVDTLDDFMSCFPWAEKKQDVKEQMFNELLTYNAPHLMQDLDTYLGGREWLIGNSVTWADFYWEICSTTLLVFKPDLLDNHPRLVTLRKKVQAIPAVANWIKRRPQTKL
row,Compound,IC50
1,"CCCOCCCNC(=O)c1cnc(-c2cccc(F)c2)c(Cl)c1 [Example 550, 5-Chloro-6-(3-fluorophenyl)-N-(3-propoxypropyl)nicotinamide]",30.4 nM
2,"COc1cccc(-c2ccc(C(=O)NC(=O)[C@@H](N)C(C)C)cn2)c1 [Example 287, 6-(3-Methoxyphenyl)-N-L-valylnicotinamide]",816 nM
3,"O=C(NC1CCN(Cc2ccc(Cl)c(Cl)c2)C1=O)c1ccc(-c2cccc(F)c2)nc1 (centres unmarked) [Example 160, N-[1-(3,4-Dichlorobenzyl)-2-oxopyrrolidin-3-yl]-6-(3-fluorophenyl)nicotinamide]",40.8 nM
4,"CC(C)N1CCCC(CNC(=O)c2ccc(-c3cccc(F)c3)nc2)C1 (centres unmarked) [Example 116, 6-(3-Fluorophenyl)-N-[(1-isopropylpiperidin-3-yl)methyl]nicotinamide]",163 nM
5,"COC(C)(C)CNC(=O)c1ccc(-c2cccc(F)c2)nc1 [Example 194, 6-(3-Fluorophenyl)-N-(2-methoxy-2-methylpropyl)nicotinamide]",376 nM
6,"CN(C)CC(C)(C)CNC(=O)c1ccc(-c2cccc(F)c2)nc1 [Example 168, N-[3-(Dimethylamino)-2,2-dimethylpropyl]-6-(3-fluorophenyl)nicotinamide]",175 nM
7,"Cc1noc(CCNC(=O)c2ccc(-c3ccc(F)cc3)nc2)n1 [Example 496, 6-(4-Fluorophenyl)-N-[2-(3-methyl-1,2,4-oxadiazol-5-yl)ethyl]nicotinamide]",429 nM
8,"CCOC(=O)CC(NC(=O)c1ccc(-c2cccc(OC)c2)nc1)c1ccc(OC)cc1 (centres unmarked) [Example 294, Ethyl 3-(4-methoxyphenyl)-3-({[6-(3-methoxyphenyl)pryidin-3-yl]carbonyl}amino) propanoate]",191 nM
9,"Cc1cccc(-c2ccc(C(=O)NCC3CCCCO3)cn2)c1 (centres unmarked) [Example 239, 6-(3-Methylphenyl)-N-(tetrahydro-2H-pyran-2-ylmethyl)nicotinamide]",67.6 nM
10,"NC(CC(=O)NC(=O)c1ccc(-c2ccccc2)nc1)C1CC1 (centres unmarked) [Example 364, N-(3-Amino-3-cyclopropylpropanoyl)-6-phenylnicotinamide]",39.3 nM
11,"CS(=O)(=O)c1ccc(CNC(=O)c2ccc(-c3ccc(F)cc3)nc2)cc1 [Example 504, 6-(4-Fluorophenyl)-N-[4-(methylsulfonyl)benzyl] nicotinamide]",687 nM
12,"CNS(=O)(=O)c1ccc(CNC(=O)c2ccc(-c3cc(F)cc(F)c3)nc2)cc1 [Example 571, 6-(3,5-Difluorophenyl)-N-{4-[(methylamino)sulfonyl]benzyl}nicotinamide]",62.1 nM
13,"CN1CCN(CCCNC(=O)c2ccc(-c3cccc(F)c3)nc2)CC1 [Example 111, 6-(3-Fluorophenyl)-N-[3-(4-methylpiperazin-1-yl)propyl]nicotinamide]",108 nM
14,"O=C(NCC(O)c1ccccc1F)c1cnc(-c2cccc(F)c2)c(Cl)c1 (centres unmarked) [Example 549, 5-Chloro-6-(3-fluorophenyl)-N-[2-(2-fluorophenyl)-2-hydroxyethyl]nicotinamide]",37.9 nM
15,"CCOC(=O)C1(NC(=O)c2ccc(-c3ccc(F)cc3)nc2)CCOCC1 [Example 495, Ethyl 4-({[6-(4-fluorophenyl)pyridin-3-yl]carbonyl}amino)tetrahydro-2H-pyran-4-carboxylate]",≥ 1000 nM
16,6-(3-Fluorophenyl)-N-{[1- (2-methoxyethyl)piperidin- 3-yl]methyl}nicotinamide [Example 438],374 nM

row,Compound,IC50
1,"Cc1cccc(-c2ccc(C(=O)NCC(C)(C)CN(C)C)cn2)c1 [Example 242, N-[3-(Dimethylamino)-2,2-dimethylpropyl]-6-(3-methylphenyl)nicotinamide]",300 nM
2,"CN(C)CC(C)(C)CNC(=O)c1ccc(-c2ccc(F)cc2)nc1 [Example 266, N-[3-(Dimethylamino)-2,2-dimethylpropyl]-6-(4-fluorophenyl)nicotinamide]",≥ 1000 nM
3,"COc1cccc(-c2ccc(C(=O)NCc3cccc(F)c3)cn2)c1 [Example 311, N-(3-Fluorobenzyl)-6-(3-methoxyphenyl)nicotinamide]",368 nM
4,"CCOC(=O)C(CNC(=O)c1ccc(-c2ccc(F)cc2)nc1)C1CCCC1 (centres unmarked) [Example 260, Ethyl 2-cyclopentyl-3-({[6-(4-fluorophenyl)pyridin-3-yl]carbonyl}amino)propanoate]",316 nM
5,"Cc1ccc(CNC(=O)c2ccc(-c3ccc(F)cc3)nc2)cc1 [Example 480, 6-(4-Fluorophenyl)-N-(4-methylbenzyl)nicotinamide]",327 nM
6,"CCOC(=O)CC(NC(=O)c1ccc(-c2cccc(OC)c2)nc1)c1ccccc1 (centres unmarked) [Example 272, Ethyl 3-({[6-(3-methoxyphenyl)pyridin-3-yl]carbonyl}amino)-3-phenylpropanoate]",474 nM
7,"Cc1cccc(-c2ccc(C(=O)NC3CCOC3=O)cn2)c1 (centres unmarked) [Example 250, 6-(3-Methylphenyl)-N-(2-oxotetrahydrofuran-3-yl)nicotinamide]",74.5 nM
8,"O=C(NCc1cccc(F)c1)c1ccc(-c2cccc(F)c2)nc1 [Example 405, N-(3-Fluorobenzyl)-6-(3-fluorophenyl)nicotinamide]",211 nM
9,"O=C(NCc1ccc(-n2cncn2)cc1)c1ccc(-c2ccc(F)cc2)nc1 [Example 329, 6-(4-Fluorophenyl)-N-[4-(1H-1,2,4-triazol-1-yl)benzyl]nicotinamide]",552 nM
10,"CN1CCCCC1CNC(=O)c1ccc(-c2cccc(F)c2)nc1 (centres unmarked) [Example 97, 6-(3-Fluorophenyl)-N-[(1-methylpiperidin-2-yl)methyl]nicotinamide]",153 nM
11,"COc1cccc(-c2ccc(C(=O)NC3CCOC3=O)cn2)c1 (centres unmarked) [Example 293, 6-(3-Methoxyphenyl)-N-(2-oxotetrahydrofuran-3-yl)nicotinamide]",508 nM
12,"COC(=O)[C@H](C)NC(=O)c1ccc(-c2cccc(F)c2)nc1 [Example 174, Methyl N-{[6-(3-fluorophenyl)pyridin-3-yl]carbonyl}alaninate]",601 nM
13,"COC(=O)CNC(=O)c1ccc(-c2cccc(C)c2)nc1 [Example 241, Methyl N-{[6-(3-methylphenyl)pyridin-3-yl]carbonyl}glycinate]",150 nM
14,"Cc1cc(=O)[nH]c(N2CCC(CNC(=O)c3ccc(-c4cccc(F)c4)nc3)CC2)n1 [Example 109, 6-(3-Fluorophenyl)-N-{[1-(4-methyl-6-oxo-1,6-dihdyropyrimidin-2-yl)piperidin-4-yl]methyl}nicotinamide]",34.5 nM
15,"O=C(NCCNc1ccccc1)c1ccc(-c2ccc(F)cc2)nc1 [Example 508, N-(2-Anilinoethyl)-6-(4-fluorophenyl)nicotinamide]",412 nM
16,"COc1cccc(-c2ccc(C(=O)NCC(C)C)cn2)c1 [Example 338, N-isobutyl-6-(3-methoxyphenyl)nicotinamide]",298 nM

# The next compounds have a lower IC50 than those just listed; values first:
row,IC50,Compound
1,29.2 nM,"Cc1cccc(-c2ccc(C(=O)NCc3ccco3)cn2)c1 [Example 246, N-(2-Furylmethyl)-6-(3-methylphenyl)nicotinamide]"
2,25.4 nM,"O=C(NCC1CC2(CCN(Cc3cc[nH]n3)CC2)CO1)c1ccc(-c2cccc(F)c2)nc1 (centres unmarked) [Example 51, 6-(3-Fluorophenyl)-N-{[8-(1H-pyrazol-3-ylmethyl)-2-oxa-8-azaspiro[4.5]dec-3-yl]methyl}nicotinamide]"
3,25.4 nM,"O=C(NCCN1CCCC1=O)c1ccc(-c2ccccc2)nc1 [Example 351, N-[2-(2-Oxopyrrolidin-1-yl)ethyl]-6-phenylnicotinamide]"
4,23.2 nM,"CCOC(=O)CCCNC(=O)c1ccc(-c2ccccc2)nc1 [Example 386, Ethyl 4-{[(6-phenylpyridin-3-yl)carbonyl]amino}butanoate]"
5,21.7 nM,"O=C(NCCN1CCCC(O)C1)c1ccc(-c2cccc(F)c2)nc1 (centres unmarked) [Example 47, 6-(3-Fluorophenyl)-N-[2-(3-hydroxypiperidin-1-yl)ethyl]nicotinamide]"
6,14.5 nM,"COC(=O)CCNC(=O)c1ccc(-c2cccc(F)c2)nc1 [Example 187, Methyl N-{[6-(3-fluorophenyl)pyridin-3-yl]carbonyl}-beta-alaninate]"
7,14.1 nM,"COC(=O)c1ccc(CNC(=O)c2ccc(-c3ccccc3)nc2)cc1 [Example 523, Methyl 4-({[(6-phenylpyridin-3-yl)carbonyl]amino}methyl) benzoate]"
8,12.8 nM,"O=C(NCc1cn2ccccc2n1)c1ccc(-c2cccc(F)c2)nc1 [Example 100, 6-(3-Fluorophenyl)-N-(imidazo[1,2-a]pyridin-2-ylmethyl)nicotinamide]"
9,12 nM,"Cc1nc(CCNC(=O)c2cnc(-c3cccc(F)c3)c(Cl)c2)cs1 [Example 544, 5-Chloro-6-(3-fluorophenyl)-N-[2-(2-methyl-1,3-thiazol-4-yl)ethyl]nicotinamide]"
10,9.1 nM,"O=C(NCCN1CCN(Cc2ccccc2)CC1)c1ccc(-c2ccccc2)nc1 [Example 382, N-[2-(4-Benzylpiperazin-1-yl)ethyl]-6-phenylnicotinamide]"
11,9.06 nM,"O=C(NCCc1nnc(C2CC2)[nH]1)c1ccc(-c2cccc(F)c2)nc1 [Example 88, N-[2-(5-Cyclopropyl-4H-1,2,4-triazol-3-yl)ethyl]-6-(3-fluorophenyl)nicotinamide]"
12,7.14 nM,"O=C(NCC1CCCOC1)c1ccc(-c2cccc(F)c2)nc1 (centres unmarked) [Example 40, 6-(3-Fluorophenyl)-N-(tetrahydro-2H-pyran-3-ylmethyl)nicotinamide]"
13,6.6 nM,"O=C(CNC(=O)c1ccc(-c2ccccc2)nc1)OCc1ccccc1 [Example 367, Benzyl N-[(6-phenylpyridin-3-yl)carbonyl]glycinate]"
14,2.89 nM,"Cc1cccnc1CC(C)NC(=O)c1ccc(-c2cccc(F)c2)nc1 (centres unmarked) [Example 3, 6-(3-Fluorophenyl)-N-[1-methyl-2-(3-methylpyridin-2-yl)ethyl]nicotinamide]"
15,1.73 nM,"O=C(NCc1cc(F)cc2c1OCOC2)c1ccc(-c2ccccc2)nc1 [Example 357, N-[(6-Fluoro-4H-1,3-benzodioxin-8-yl)methyl]-6-phenylnicotinamide]"
